Results from patent publication US11696913B2, “Prolonged ectoparasite-controlling agent for animal” (MITSUI CHEMICALS AGRO, INC., priority 2017, dated 2023).

How the values were obtained:
[1] = test system: Ixodes ricinus; experiment: In vitro contact test with adult hard ticks (Ixodes ricinus); details: read-out: acaricidal activity
Experimental: (§1) In Vitro Contact Tests with Adult Hard Ticks
(§2) In vitro contact tests with ticks were conducted with adult males and females of Rhipicephalus sanguineus, Ixodes ricinus, or Dermacentor variabilis, or nymphs of Amblyomma americanum.
(§3) For the coating of the test vials, the test substance was dissolved and diluted in acetone p.a. to the desired concentration. The solution was then homogeneously applied to the inner wall and base of a glass vial by turning and rocking on an orbital shaker until complete evaporation of the solvent. For example, with a 900 ppm solution of test substance, an area-based dose of 5 μg/cm^2 was achieved.
(§4) After the solvent was completely evaporated, 5-10 adult ticks were put in each coated test vial, which was then sealed with a perforated plastic lid and incubated in a horizontal position in the dark at room temperature and ambient humidity (Rhipicephalus sanguineus) or in a climate-controlled cabinet (Ixodes ricinus, Dermacentor variabilis, Amblyomma americanum [21° C., 85% rel. hum.]). Acaricidal activity against the respective tick species was determined after 48 h. For this, ticks were collected to the base of the test vial by gentle knocking, and test vials were then incubated on a hotplate at 45-50° C. for no longer than 5 min. Ticks which remained motionless on the base of the test vial or moved uncoordinated without deliberately climbing up to avoid the heat were considered dead or moribund, respectively.
(§5) A substance was judged to have good acaricidal activity against the respective tick species when at least 80% of ticks were found dead or moribund at a dose of the substance of g/cm^2. An acaricidal activity of 100% means all ticks were dead or moribund. An acaricidal activity of 0% means none of the ticks was found dead or moribund.

[2] = test system: Amblyomma americanum; experiment: In vitro contact test with hard ticks (Amblyomma americanum nymphs); details: read-out: acaricidal activity; for pest or weed control at 0.2 µg/cm2, 0.2 µg/cm2: dose 0.2 μg/cm^2, 48 h; for pest or weed control at 1 µg/cm2, 1 µg/cm2: dose 1 μg/cm^2, 48 h
Experimental: as §1, §2, §3, §4, §5

[3] = test system: Rhipicephalus sanguineus; experiment: In vitro contact test with adult hard ticks (Rhipicephalus sanguineus); details: read-out: acaricidal activity; for pest or weed control at 0.04 µg/cm2, 0.04 µg/cm2: dose 0.04 μg/cm^2, 48 h; for pest or weed control at 0.2 µg/cm2, 0.2 µg/cm2: dose 0.2 μg/cm^2, 48 h; for pest or weed control at 1 µg/cm2, 1 µg/cm2: dose 1 μg/cm^2, 48 h
Experimental: as §1, §2, §3, §4, §5

[4] = test system: Rhipicephalus (Boophilus) microplus; experiment: In vitro injection test with Rhipicephalus (Boophilus) microplus (BOOPMI Inj); details: 168 h, laid fertile eggs after 7 days, read-out: acaricidal activity; for pest or weed control at 0.00016 mg: dose 0.16 μg/animal injected; for pest or weed control at 0.0008 mg: dose 0.8 μg/animal injected
Experimental: In Vitro Injection Test with Rhipicephalus (Boophilus) Microplus (BOOPMI Inj)
To produce an appropriate mixture for injection, the test substance was dissolved and diluted in dimethyl sulphoxide to the desired concentration. 1 μl of the test mixture was injected into the abdomen of each of 5 engorged adult female cattle ticks (Rhipicephalus (Boophilus) microplus). The ticks were transferred into petri dishes and maintained in a climate-controlled room [28° C., 85% rel. hum.].
Acaricidal activity against cattle ticks was assessed after 7 days by assessment of laid fertile eggs. […] An acaricidal activity of 100% means that none of the ticks laid eggs or laid eggs were infertile; 0% means that the ticks laid eggs, and all the eggs were fertile.

[5] = test system: Ctenocephalides felis; experiment: In vitro contact test with fleas; details: read-out: insecticidal activity; for pest or weed control at 0.2 µg/cm2, 0.2 µg/cm2: dose 0.2 μg/cm^2, dead or moribund fleas after 48 h; for pest or weed control at 1 µg/cm2, 1 µg/cm2: dose 1 μg/cm^2, dead or moribund fleas after 48 h
Experimental: In Vitro Contact Tests with Fleas
In vitro contact tests with fleas were conducted with adult male and female cat fleas (Ctenocephalides felis).
as §3, with “To coat” for “For the coating of”, “tubes,” for “vials,”, “tube” for “vial”
Upon complete evaporation of the solvent, 5-10 adult cat fleas (Ctenocephalides felis) were added to each coated tube, which was then sealed with a perforated plastic lid and incubated in a horizontal position at room temperature and ambient humidity. After 48 h, insecticidal activity against fleas was determined. For this, fleas were collected to the base of the tube by knocking the tube, and the tube was allowed to stand upright. Fleas which remained motionless at the base or moved in an uncoordinated manner were considered dead or moribund, respectively.
A substance was judged to have good insecticidal activity against Ctenocephalides felis when at least 80% of the fleas were found dead or moribund at a dose of the substance of μg/cm^2. 100% insecticidal activity means that all the fleas were found dead or moribund. 0% insecticidal activity means that no fleas were found dead or moribund.

[6] = test system: Ctenocephalides felis; experiment: Ctenocephalides felis in-vitro feeding test with fleas (CTECFE oral); details: 48 hours, read-out: insecticidal feeding activity; for pest or weed control at 0.8 ppm: dose 0.8 ppm in citrated cattle blood; for pest or weed control at 4 ppm: dose 4 ppm in citrated cattle blood; for pest or weed control at 0.16 ppm: dose 0.16 ppm in citrated cattle blood
Experimental: Ctenocephalides felis In-Vitro Feeding Test with Fleas (CTECFE Oral)
To prepare a test blood mixture for feeding fleas, the test substance was dissolved in dimethyl sulphoxide and diluted with citrated cattle blood to the desired concentration.
To assemble the test set-up, about 20 unfed adult male and female cat fleas
(Ctenocephalides felis) were placed in a chamber which was closed at the top and bottom with gauze. A metal cylinder was sealed at one end with parafilm membrane, placed with the sealed base onto the chamber, and filled with the test blood mixture, which could be imbibed by the fleas through the parafilm membrane. The assembled test set-up was maintained at about 37° C. After 48 hours, the insecticidal feeding activity against fleas was determined. 100% means that all of the fleas were killed; 0% means that none of the fleas was killed.

[7] = test system: Dermacentor variabilis; experiment: In vitro contact test with adult hard ticks (Dermacentor variabilis); details: read-out: acaricidal activity; for pest or weed control at 1 µg/cm2, 1 µg/cm2: dose 1 μg/cm^2, 48 h
Experimental: as §1, §2, §3, §4, §5

Compound	pest or weed control at 0.2 µg/cm2, 0.2 µg/cm2 [2] [%]	pest or weed control at 1 µg/cm2, 1 µg/cm2 [2] [%]	pest or weed control at 0.04 µg/cm2, 0.04 µg/cm2 [3] [%]	pest or weed control at 0.2 µg/cm2, 0.2 µg/cm2 [3] [%]	pest or weed control at 1 µg/cm2, 1 µg/cm2 [3] [%]	pest or weed control at 0.00016 mg [4] [%]	pest or weed control at 0.0008 mg [4] [%]	pest or weed control at 0.2 µg/cm2, 0.2 µg/cm2 [5] [%]	pest or weed control at 1 µg/cm2, 1 µg/cm2 [5] [%]	pest or weed control at 0.8 ppm [6] [%]	pest or weed control at 4 ppm [6] [%]	pest or weed control at 0.16 ppm [6] [%]	pest or weed control at 1 µg/cm2, 1 µg/cm2 [7] [%]	other results
O=C(Nc1cccc(C(=O)Nc2c(Br)cc(C(F)(C(F)(F)F)C(F)(F)F)cc2OC(F)(F)F)c1)c1ccc(F)cc1 [Compound 12]	90	90	90	90	90	100	100	95	95	95	95			pest or weed control at 0.2 µg/cm2, 0.2 µg/cm2 ([1]; dose 0.2 μg/cm^2, 48 h): 90%; pest or weed control at 1 µg/cm2, 1 µg/cm2 ([1]; dose 1 μg/cm^2, 48 h): 90%; pest or weed control at 5 µg/cm2, 5 µg/cm2 ([1]; dose 5 μg/cm^2, 48 h): 90%; pest or weed control at 0.04 µg/cm2, 0.04 µg/cm2 ([2]; dose 0.04 μg/cm^2, 48 h): 90%
N#Cc1ccc(C(=O)Nc2cccc(C(=O)Nc3c(Br)cc(C(F)(C(F)(F)F)C(F)(F)F)cc3C(F)(F)F)c2)cc1 [Compound 3]		90		90	90		100	95	95		95			
O=C(Nc1c(I)cc(C(F)(C(F)(F)F)C(F)(F)F)cc1C(F)(F)F)c1cccc(NC(=O)c2cc(F)c(F)cc2Cl)c1 [Compound 38]	90	90				100	100	95	95	95	95	95	90	
CN(C(=O)c1ccc(C#N)cc1)c1cccc(C(=O)Nc2c(I)cc(C(F)(C(F)(F)F)C(F)(F)C(F)(F)F)cc2C(F)(F)F)c1F (stereo not shown) [Compound 23]		90			90	100	100	95	95	95	95	95	90	pest or weed control at 6.4 ng ([4]; dose 0.0064 μg/animal injected): 100%; pest or weed control at 32 ng ([4]; dose 0.032 μg/animal injected): 100%; pest or weed control at 0.04 µg/cm2, 0.04 µg/cm2 ([5]; dose 0.04 μg/cm^2, dead or moribund fleas after 48 h): 95%; pest or weed control at 0.0064 ppm ([6]; dose 0.0064 ppm in citrated cattle blood): 95%; pest or weed control at 0.032 ppm ([6]; dose 0.032 ppm in citrated cattle blood): 95%; pest or weed control at 0.04 µg/cm2, 0.04 µg/cm2 ([7]; dose 0.04 μg/cm^2, 48 h): 90%; pest or weed control at 0.2 µg/cm2, 0.2 µg/cm2 ([7]; dose 0.2 μg/cm^2, 48 h): 90%
O=C(Nc1cccc(C(=O)Nc2c(Br)cc(C(F)(C(F)(F)F)C(F)(F)F)cc2OC(F)(F)F)c1)c1ccc([N+](=O)[O-])cc1 [Compound 11]	90	90	90	90	90	100	100	95	95	95	95	95		
